The values below are quoted from earlier work in US20200078426A1, “TREATMENT OF CANCER BY INFUSION OF ONCOLYTIC HERPES SIMPLEX VIRUS TO THE BLOOD” (VIRTTU BIOLOGICS LIMITED, priority 2015, published 2020).

The subject of the series is squamous cell head and neck cancer. Conditions: concurrent chemo-radiation arm, unresectable locally advanced disease; radiation alone 23%.

Each structure is given as a SMILES string.

Regarding `N.N.[Cl][Pt][Cl]` [cisplatin], the “three year overall survival” value is given as 37%.
